The test system of assay [1] is skin on the ventral side of the forearm of healthy volunteers. The assay is described as follows: Evaluation of the moisturization of the skin by electrical conductance (Dermodiag), randomized double-blind clinical study. To be noted: for moisturization of the skin vs placebo (Wilcoxon test): 12 months oral 50 mg daily; for Conductance: 50 mg daily oral. It is filed as in vivo, human. As for the experimental part: (§1) The evaluation was carried out using a randomized double-blind clinical study among 280 individuals (140 men and 140 women). The inclusion criteria was as follows: healthy volunteers, of both sexes, free of any severe pathological condition and 60 to 80 years old.
(§2) The treatment consisted, for 12 months, of a daily dose of 50 mg of DHEA, taken in the morning, in the form of a breakable tablet, for half of the individuals, or of a placebo for the other half of the individuals.
The moisturization of the skin on the ventral side of the forearm is measured, blind, at the start of treatment (T0) and at the end of treatment (T12), by the same clinician, using a Dermodiag®, which is a device described in patent U.S. Pat. No. 5,001,436. The characteristics of the device are as follows: outlet impedance: 1.4 kOhms and working frequency 10 MHz. The method used is that described by J. L. Lévêque, Soc. Cosmet. Chem. (1983), 34, 419-428.
This device makes it possible to evaluate the state of moisturization (water content of the superficial layers of the epidermis) by measuring electrical conductance. The conductance is measured using an electrode applied to the skin for 10 seconds. The conductance value is the result of the mean of 6 individual measurements per measurement time.
(§3) The statistical analysis is performed using the Wilcoxon test.

The subject of assay [2] is sebaceous glands of the skin of healthy volunteers. The assay is described as follows: Evaluation of the production of sebum (Sebutape patches, number of spots by image analysis), randomized double-blind clinical study. The conditions noted are these: for variation in seborrhea vs placebo (Wilcoxon test): 12 months oral 50 mg daily; for Number of spots: 50 mg daily oral. Format: in vivo, human. The method, then:
as §1, §2
The production of sebum is measured at the start of treatment (T0) and at the end of treatment (T12) according to the techniques described by A. M. Kligman et al., J. Soc. Cosmet. Chem. (1986), 37, 369-373 and by K. M. Nordstrom et al., J. Invest. Dermatol. (1986), 87, 260-264.
White adhesive microporous patches (Sebutape®, Cuderm Corporation, Dallas, Tex., USA) described in U.S. Pat. No. 4,532,937 are used; the patches are applied in a standardized manner to the skin, which has been wiped 10 times, beforehand, with cotton soaked in 70° alcohol in order to remove any fat. The lipids which are passively absorbed onto the patches are visualized by the presence of transparent spots, themselves measured by image analysis.
Each spot represents an active sebaceous gland.
as §3

Setting [3] is: men, T0 (start of treatment), DHEA group.
The mark [4] stands for this setting: men, T12 (end of 12 months treatment).
The mark [5] stands for this setting: women, T0 (start of treatment), DHEA group.
The mark [6] stands for this setting: women, T12 (end of 12 months treatment).

The source of these data is patent US20030050293A1, “Use of dehydroepiandrosterone, its precursors and derivatives, by oral administration, as hydrating agents with direct action” (priority 2000, published 2003).

Take `C[C@]12CC[C@H](O)CC1=CC[C@@H]1[C@@H]2CC[C@]2(C)C(=O)CC[C@@H]12` [DHEA, Dehydroepiandrosterone]: the “moisturization of the skin vs placebo (Wilcoxon test)” value in assay [1] (men, p=0.03) is recorded as “significant improvement”; in assay [1] (women, p=0.44), “without significant variation in the moisturization of the skin”. Moreover, the Conductance is given as 69 in assay [1] (setting [3]), 86 in assay [1] (setting [4]), 64 in assay [1] (setting [5]) and 84 in assay [1] (setting [6]). Besides, the “improvement of the moisturization of the skin, measured by conductance” value in assay [1] (men, treated group, T12 vs T0, 50 mg daily oral (placebo +21%, p=0.03)) is on record as 26%. The “variation in seborrhea vs placebo (Wilcoxon test)” value in assay [2] (men, p=0.46) is “no significant variation in seborrhea”; in assay [2] (women, p=0.0001) it was “significant variation in seborrhea”. Also, the Number of spots in assay [2] (setting [3]) was determined as 55; in assay [2] (setting [4]), 140; in assay [2] (setting [5]) it was 2; in assay [2] (setting [6]), 56.
